Measured values taken from US20250057791A1, “PROTECTION AGAINST ARTHROPOD PARASITES WITH PURINERGIC RECEPTOR (OPR) ANTAGONISTS” (priority 2021, published 2025).
Several values for one entry are separate records, joined by “and”; a condition that tells them apart may be missing. Equal values may be shown once. Entries after “also recorded” stand apart in the source; their conditions may differ. Blank lines part the entries; values can stand above or below the compound they belong to.

Experiments:
A. gambiae = assay: Membrane feeding assay, A. gambiae; assay type: in vivo, Anopheles gambiae; conditions: for % fed mosquitoes (mean ± s.e.m.), ATP + antagonist: antagonist 20 μM + 20 μM ATP; for feeding inhibition at maximum dose tested: maximum dose 20 μM
Method: Experiments with A. gambiae and A. stephensi were made in a climate chamber at 28° C. and 80% RH during the last 6 hours of scotophase. As a sugar meal can interfere with the blood meal by reducing the number of females that feed, the sucrose solution supplied in rearing cages to mosquitoes employed for feeding experiments was reduced to 5%. […] The 5% sucrose solution was presented to mosquitoes from emergence on four 1 cm diam. cotton dental rolls (Hartmann A G, Neuhausen, Switzerland) inserted in 10 ml upturned glass vials placed in holes at each corner of the rearing cage ceiling. Cotton rolls were turned daily in vials and renewed every two days. Mosquitoes were not fed blood and were deprived of sucrose 17 to 20 hours before experiments. Thirty min before a feeding experiment, between 10-25, 6-day-old females that responded to activation by human breath were removed with a mouth aspirator from the rearing cage wall and placed in polystyrol cylinders with the floor cut out (10 cm dm×15 cm high; Semadeni, Ostermundigen, Switzerland) that served as feeding cages. Each cage was covered with mosquito netting at one end and a soft polyurethane lid at the other.
Mosquitoes were fed for 30 min using a feeding system (Hemotek®, Hemotek Ltd, Blackburn, UK) consisting of 3.5 ml stainless steel reservoirs 37 mm in diameter covered with a 60-90 μm thick silicone-impregnated membrane (Kröber and Guerin, 2007 in “Feeding assays for hard ticks”, Trends in parasitology 23, 445-449; doi 10.1016/j.pt.2007.07.010). Feeding reservoirs reached a temperature of 37° C. within 10 min and were placed on the netting of feeding cages. Mosquitoes were activated using a 200 ms pulse of pure CO2 (volume 6.25 ml) from a pressurised cylinder (Carbagas, Switzerland) using a solenoid valve that caused the CO2 level in the feeding cage to rise to at least 1,500 ppm. Between 3 and 4 sets of 10 feeding cages held in a custom-built Ertacetal® POM frame were tested per day, depending of the number of female mosquitoes available from the colony.
All compounds were tested in a mosquito feeding solution (FS) consisting of 25 mM dextrose, 25 mM NaCl buffered with 8.93 mM NaHCO3 adjusted to pH 7.4. Feeding responses of A. gambiae and A. stephensi to ATP as a function of dose were tested with between 7 to 10 feeding cages per dose. Each feeding experiment with an antagonist systematically included a treatment containing the FS as negative control along with a treatment containing the FS with […] added as positive control for A. gambiae and with […] added as positive control for A. stephensi. These positive and negative controls permitted to monitor any effect of experimental day on feeding responses as a function of dose for antagonists that were recorded over several days. […] Four to 10 cages each with 10 to 29 mosquitoes were tested per antagonist dose. […] The number of feeding cages used to test other compounds and their mixtures as feeding stimulants or as feeding inhibitors is listed on Table 6. The percentage of fed mosquitoes was estimated by visual inspection of abdominal distention that is indicative of engorgement.
Pairwise comparisons of A. gambiae electrophysiological (EP) responses to ATP and adenosine alone and combined with a given dose of PR antagonist, EP responses to ATP alone and combined with a given dose of a metal modulator, and EP responses to ATP prior to and after exposure of a sensillum to a given dose of a PR antagonist were made with a one-tailed Wilcoxon signed-rank test for data showing a non-normal distribution, with a paired Student's t-test for normally distributed data showing homogeneous variance and with a Welch's t-test for normally distributed data showing non-homogeneous variance. […]

[1] = test system: A. gambiae mouthpart ATP-sensitive receptor; assay: Electrophysiological response to 200 pM ATP with PR antagonist admixed; assay type: cell-based, Anopheles gambiae; conditions: for ID50/ID95: block at maximum dose tested: admixed to 200 pM ATP
Method: (§1) The tip recording method was used to record action potentials (spikes) from sensory cells in sensilla on A. gambiae labellum lobes.
(§2) Sensilla were exposed to test compounds and PR antagonists for ca. 2-4 s and spikes were counted in the first 2 s of recordings. Up to 4 test compounds were tested on a sensillum to evaluate potential agonists, each presented at 200 pM. To study responses as a function of dose for agonists ATP, adenosine, AMP, AMP-CPP and ATP+adenosine, up to 7 recordings were made at increasing doses of agonist from the same sensillum. Unless otherwise stated, recordings were made throughout from 4 to 16 sensilla from individual 4-6-day-old females per dose of agonist, antagonist and metal ion modulator. For example, a response curve established over 6 doses of an antagonist using 8 sensilla per dose involved recording from a sensillum of 48 separate mosquitoes. A given dose of a PR antagonist or metal ion modulator was only presented once to a sensillum. Two-second recordings were imported as ASCII files into DataView software for analysis of spike amplitude. Differences in spike amplitude generated by stimulation of one 8v sensillum/female with 1 mM sucrose (n=294 spikes from 6 females) 200 pM adenosine (n=207 spikes from 7 females) and 200 pM ATP (n=192 spikes from 7 females) were compared by measuring the spike amplitude in mV between the highest point of depolarisation and the lowest point of hyperpolarisation.
Pairwise comparisons of A. gambiae electrophysiological (EP) responses to ATP and adenosine alone and combined with a given dose of PR antagonist, EP responses to ATP alone and combined with a given dose of a metal modulator, and EP responses to ATP prior to and after exposure of a sensillum to a given dose of a PR antagonist were made with a one-tailed Wilcoxon signed-rank test for data showing a non-normal distribution, with a paired Student's t-test for normally distributed data showing homogeneous variance and with a Welch's t-test for normally distributed data showing non-homogeneous variance. Effects on feeding of adding ATP, AMP-CPP, adenosine, ATP+adenosine, AMP and ADP-βS, CPT with ATP or adenosine, TMP with ATP+adenosine, TMP+CPT with ATP+adenosine to the FS for A. gambiae, and of adding PR antagonists with ATP to the FS for A. stephensi were compared using one-tailed Mann-Whitney U-test or Welch's t-test, depending on data distribution; Holm's FWEC was applied where treatment comparisons involved the same positive control. Percent feeding inhibition induced by PR antagonists in A. stephensi was calculated using Abbott's formula.
Dose-response models fitted to mosquito data were generated using the ‘drm’ command in the “drc” R package (version 2.5-12). Best fitting models (goodness of fit) and effects of dose of a compound were assessed using, respectively, ‘modelFit’ and ‘noEffect’ functions in the same R package. A 3-parameter logistic model (L3) was fitted to spike-counts recorded to increasing doses of adenosine, AMP, ATP and AMP-CPP. Spike numbers recorded in response to 200 pM ATP with increasing doses of PR antagonists added were analysed using a 4-parameter log-logistic model (LL.4) for A-317491 and spinorphin, using a 4-parameter Weibull model (W1.4) for PPADS, RB-2 and TMP, and using a 3-parameter log-logistic model (LL.3) for suramin. An L3 model was fitted to proportions of females feeding on increasing doses of ATP. Feeding rates on 20 μM ATP with increasing doses of a PR antagonist added were analysed using a 4-parameter log-logistic model (LL.4) with the median of the positive control (20 μM ATP) fixed as the upper asymptote. Response dynamics in 3-parameter models are related to the slope b, the upper asymptote, and inflexion point of the model e (the ED50 value), whereas 4 parameter models also include the lower asymptote parameter. […]

[2] = test system: A. gambiae labellum sensilla (purine-sensitive cell); assay: Tip recording of action potentials from A. gambiae labellum sensilla in response to agonists; assay type: cell-based, Anopheles gambiae; conditions: for EC50: Anopheles gambiae, read-out: ED50 (the source's name); for EC50 / ED95 / dose at which the unsurmountable asymptote is reached: spike frequency as a function of dose; for spikes recorded at the asymptote: at 250 pM; for Mean spike frequency per 2 s (±SEM): each compound at 200 pM alone and in binary mixtures, T1 labellum sensilla
Method: as §1, §2
Spike counts elicited by 200 pM doses of nucleotides, nucleosides, purines, pyrimidines and water were log(x+1.25)-transformed (optimal constant numerically established using a maximum likelihood procedure) and analysed using a linear mixed effects model (function ‘lme’ in “nlme” R package) with mosquito number as random effect. To model inhomogeneous variance in residuals (near normal distribution, P=0.045, Shapiro-Wilk test, W=0.98604), the variance function ‘varldent’ in the “nlme” package that allows for different variance per treatment was used. Statistical differences were identified between treatments using post-hoc-Tukey test with contrasts adjusted by Holm's family wise error compensation (FWEC). Spike counts elicited by ATP, AMP, adenosine and their binary mixtures were analysed using a generalised linear model (LM) of log (x+10) transformed data and differences were identified using post-hoc-Tukey test with Holm's FWEC.
Log transformed spike amplitudes generated in response to ATP, adenosine and sucrose were compared using linear mixed effects models using the ‘lme’ function of the “nlme” R package, with spike amplitude as the dependent variable, treatment as the fixed factor and mosquito number within treatment as random effect. Residuals were normally distributed (Shapiro-Wilk test P>0.0563) and their variances homogeneous (Bartlett test P>0.9799); P-values were corrected using Holm's FWEC.
Dose-response models fitted to mosquito data were generated using the ‘drm’ command in the “drc” R package (version 2.5-12). Best fitting models (goodness of fit) and effects of dose of a compound were assessed using, respectively, ‘modelFit’ and ‘noEffect’ functions in the same R package. A 3-parameter logistic model (L3) was fitted to spike-counts recorded to increasing doses of adenosine, AMP, ATP and AMP-CPP. Spike numbers recorded in response to 200 pM ATP with increasing doses of PR antagonists added were analysed using a 4-parameter log-logistic model (LL.4) for A-317491 and spinorphin, using a 4-parameter Weibull model (W1.4) for PPADS, RB-2 and TMP, and using a 3-parameter log-logistic model (LL.3) for suramin. An L3 model was fitted to proportions of females feeding on increasing doses of ATP. Feeding rates on 20 μM ATP with increasing doses of a PR antagonist added were analysed using a 4-parameter log-logistic model (LL.4) with the median of the positive control (20 μM ATP) fixed as the upper asymptote. […]

[3] = antagonist 1000 nM + 200 pM ATP

ID50/ID95: block at maximum dose tested ([1]; maximum dose 1 μM): No block (1 μM)
SMILES: Clc1cccc(-c2nnnn2Cc2cccnc2)c1Cl [A-438079, 3-[[5-(2,3-dichlorophenyl)tetrazol-1-yl]methyl]pyridine]
% reduction in feeding (A. gambiae; 20 μM, with 20 μM ATP): (20 μM, 30.74%) | % fed mosquitoes (mean ± s.e.m.), ATP + antagonist (A. gambiae): 48.65% | Mean no. of spikes per 2 s (±s.e.m.), ATP + antagonist [1, 3]: 22.57 spikes per 2 s

SMILES: Nc1ncnc2c1ncn2[C@@H]1O[C@H](COP(=O)(O)OP(=O)(O)O)[C@@H](O)[C@H]1O [ADP, Adenosine 5′-diphosphate]
EP response in words ([2]; 200 pM): no activity; also recorded: failure

EC50 [2]: ~0.12 nM
SMILES: Nc1ncnc2c1ncn2[C@@H]1O[C@H](COP(=O)(O)O)[C@@H](O)[C@H]1O [AMP, Adenosine 5′-monophosphate]
% Engorged mosquitoes (A. gambiae; 20 μM in feeding solution): 38.3 ± 5.1% | spikes recorded at the asymptote [2]: approximately 30 spikes/2 s | Mean spike frequency per 2 s (±SEM) [2]: 28.58 per 2 s | ED95 [2]: ~0.2 nM | dose at which the unsurmountable asymptote is reached [2]: 250 pM

SMILES: Nc1ncnc2c1ncn2C1OC(COP(=O)(O)CP(=O)(O)OP(=O)(O)O)C(O)C1O (stereo not drawn) [AMP-CPP, α,β-Methyleneadenosine-5′-triphosphate]
% Engorged mosquitoes (A. gambiae; 20 μM in feeding solution): 84.35% and 84.3 ± 6.8% | ED95 [2]: 0.05 nM | dose at which the unsurmountable asymptote is reached [2]: 80 pM

EC50 [2]: ~0.12 nM
SMILES: Nc1ncnc2c1ncn2[C@@H]1O[C@H](CO)[C@@H](O)[C@H]1O [Adenosine, 9-β-D-Ribofuranosyladenine]
% Engorged mosquitoes (A. gambiae; 20 μM in feeding solution): 39.1 ± 5.7% | % Engorged mosquitoes (A. gambiae; 1 mM in feeding solution): 64.4 ± 3.2% | spike frequency ([2]; 50 pM alone, mixture 50 pM of each agonist): 1.25±0.62 /2s | EP response, spike frequency ([2]; 200 pM): 30.23±3.02 spikes/2s | spikes recorded at the asymptote [2]: approximately 30 spikes/2 s | Mean spike frequency per 2 s (±SEM) [2]: 27.14 per 2 s | ED95 [2]: ~0.2 nM | dose at which the unsurmountable asymptote is reached [2]: 250 pM

SMILES: Cc1nc(N=Nc2ccc(C(=O)O)cc2)c(COP(=O)(O)O)c(C=O)c1O [MRS 2159, [2-[(4-carboxyphenyl)diazenyl]-4-formyl-6-methyl-5-oxidopyridin-3-yl]methyl phosphate]
% fed mosquitoes (mean ± s.e.m.), ATP + antagonist (A. gambiae): 79.19% | feeding inhibition at maximum dose tested (A. gambiae; with 20 μM ATP): No feeding inhibition | Mean no. of spikes per 2 s (±s.e.m.), ATP + antagonist [1, 3]: 27.14 spikes per 2 s | ID50/ID95: block at maximum dose tested ([1]; maximum dose 1 μM): No block (1 μM)

ID50/ID95: block at maximum dose tested ([1]; maximum dose 2 μM): No block (2 μM)
SMILES: Fc1ccc([C@@H]2CCNC[C@H]2COc2ccc3c(c2)OCO3)cc1 [Paroxetine, (3S,4R)-3-(1,3-benzodioxol-5-yloxymethyl)-4-(4-fluorophenyl)piperidine]
% fed mosquitoes (mean ± s.e.m.), ATP + antagonist (A. gambiae): 62.72% | feeding inhibition at maximum dose tested (A. gambiae; with 20 μM ATP): No feeding inhibition | Mean no. of spikes per 2 s (±s.e.m.), ATP + antagonist ([1]; antagonist 2000 nM + 200 pM ATP): 27.6 spikes per 2 s

SMILES: Nc1ncnc2c1ncn2[C@H]1C[C@H](O)[C@@H](COP(=O)(O)OP(=O)(O)OP(=O)(O)O)O1 [dATP, 2′-Deoxyadenosine 5′-triphosphate]
EP response in words ([2]; 200 pM): strongly reduced activity

SMILES: Nc1ncnc2c1ncn2[C@H]1CC[C@@H](COP(=O)(O)OP(=O)(O)OP(=O)(O)O)O1 [ddATP, 2′,3′-Dideoxyadenosine-5′-triphosphate]
EP response in words ([2]; 200 pM): strongly reduced activity
